For orientation: pIC50 means the negative decadic logarithm of the IC50, by convention in mol/L. A low value points to a high IC50.

One data set deals with HT29. Briefly: CellTiter-Blue cell viability assay, HT29. The format is cell-based, human. Particulars: 50% cell viability vs untreated, mean of triplicates. The procedure:
Cell culture of colorectal carcinoma cell lines was performed as follows. DLD-1, HCT116, and HT-29 cells were purchased from CLS Cell Line Service GmbH (Eppelheim, Germany) and cultured in Dulbecco's Modified Eagle Medium (DMEM) high glucose, GlutaMAX™ Supplement, pyruvate (Thermo Fisher Scientific, Paisley, UK) supplemented with 10% fetal bovine serum (FBS; Thermo Fisher Scientific), 200 U/mL penicillin, and 200 μg/ml streptomycin (Thermo Fisher Scientific), at 37° C. with 5% CO2 in a humidified incubator.
The CellTiter®-Blue Cell Viability assay was acquired from Promega Corporation (Madison, WI, USA). Cell viability assay was performed as follows: DLD-1 (4×10^3/well), HCT116 (4×10^3/well), and HT-29 (7×10^3/well) were incubated with a concentration gradient of compound (Id) ranging from 0.01 to 20 μM, in 96-well plates for 48 h at 37° C. Subsequently, 20 μl CellTiter®-Blue Cell Viability reagent was added to each well and incubated for an additional 2 h for the development of fluorescence. The fluorescence emission was measured at 590 nm using a SpectraMax® i3× Multi-Mode microplate reader (Molecular Devices, LLC, San Jose, CA, USA) and plotted against drug concentrations to determine the mean inhibitory concentration of compound (Id) producing 50% decrease in cell viability (IC50). Experiments were performed in triplicates.
(The colour change of resazurin is a common sign of viable cells or microbes.)

The test system of the next data set is Kasumi-1. Briefly: CellTiter-Blue cell viability assay, Kasumi-1. The format is cell-based, human. Particulars: 48 h, mean of triplicates. The method, then: (§1) Cell culture of leukemia cell lines model was performed as follows. HL60, K562, and NB4 cell lines were purchased from CLS Cell Line Service GmbH (Eppelheim, Germany). MV4-11 cell line was purchased from American Type Culture Collection (ATCC; Virginia, USA). KG1α also referred to as KG1a was a gift from Prof. Ghulam Mufti (King College London, UK). Kasumi-1 cell line was purchased from Nawah Scientific (Cairo, Egypt). All cell lines were cultured in Roswell Park Memorial Institute-1640 (RPMI-1640) culture medium supplemented with 10% fetal bovine serum (FBS) (Thermo Fisher Scientific) and 0.1% ciprofloxacin (10 μg/ml; Cipla Limited; Mumbai, India). Cells were maintained in a humidified incubator at 37° C. with 5% CO2.
(§2) Cell viability was determined using the CellTiter-Blue® Cell Viability Assay kit (Promega, Madison, WI, USA). Approximately […] were plated in 96 well plate in the presence of increasing drug concentration in triplicate and incubated for 48 h at 37° C. in a humidified incubator. After the incubation period, 20 μL of the cell titer blue reagent was added to each well and the plate was incubated for additional 2 h for the development of florescence. Florescence was measured at 540Ex/590Em on SpectraMax i3 Multi-Mode Microplate Reader (Molecular Devices, LLC; San Jose, CA, USA). […]

For the next data set, the system named is NB4. Put plainly: CellTiter-Blue cell viability assay, NB4. Particulars: 48 h, mean of triplicates. The format is cell-based, human. The method, then:
as §1, §2

Data set [1] is described as follows: Stability in human liver microsomes. The format is in vitro ADME. The procedure: The clearance of compound (Id) in mouse or human liver microsomes was determined at 37° C. Both mouse and human liver microsomes were obtained from Merck KGaA, (Darmstadt, Germany), Cat. No. M9441 (Mouse liver microsomes) and M0317 (Human liver microsomes). Assays were conducted in triplicate in 96-deep well polypropylene plates. […] At five time points, reaction mixture aliquots were transferred to 96-shallow well stop plates on ice containing acetonitrile with 0.1 μM propafenone. […] Standard curves for test compounds were generated using 5 concentrations in triplicate that were processed as above but with zero incubation time. Stop plates were centrifuged at 2000 g for 10 min and then supernatant aliquots were transferred to a Waters Aquity® UPLC 700 μL 96-well sample plate with cap mat (Waters, Milford, MA). The amount of compound remaining in the supernatant was quantified by LC/MS/MS using a Waters Xevo TQ MS (electrospray positive mode) coupled to a Waters Aquity® UPLC (BEH column, C18). Propafenone was used as the internal standard. GraphPad® Prism v 5.04 was used for nonlinear fitting of time course data to generate t1/2 values.

Data set [2] can be described thus: Stability in mouse plasma. Format: in vitro ADME. Particulars: for Mouse Plasma Stability t1/2: 1 μM, 37° C. The procedure:
Stability in mouse plasma was tested as follows. The assay was conducted at 37° C. in triplicate. Test compound or procaine (positive control) was tested at a final concentration of 1 μM in either 2.5% DMSO/CD-1 mouse plasma (Innovative Research, Novi, MI; sodium heparin added as anticoagulant; pH adjusted to 7.4 with 2N HCl on day of use) or 2.5% DMSO/PBS (pH 7.4:136.9 mM NaCl, 2.68 mM KCl, 8.1 mM Na2HPO4, 1.47 mM KH2PO4, 0.9 mM CaCl2, 0.49 mM MgCl2). At seven time points, reaction mixture aliquots were transferred to 96-shallow well stop plates on ice containing acetonitrile with 0.1 μM propafenone. Samples were analyzed by LC/MS/MS on a Waters Xevo TQ instrument as described above using positive electrospray ionization. Assay acceptance criteria was 20% for all standards and 25% for the LLOQ. GraphPad® Prism v. 5.04 was used for nonlinear fitting of data to generate t1/2 values.

The nature of data set [3]: Binding to mouse plasma proteins (equilibrium dialysis). Format: in vitro ADME. The procedure: Binding to mouse plasma proteins was determined as follows. The equilibrium dialysis method for determining plasma protein binding was performed using 96-well dialyzer plates with molecular weight cutoff of 5K (Harvard Apparatus, Holliston, MA) and a dual-plate rotator set to maximum speed (Harvard Apparatus, Holliston, MA) located in a 37° C. incubator with a 10% CO2-atmospheric environment. Assays were run in triplicate. The test compound was added to CD-1 mouse plasma (Innovative Research, Novi, MI, sodium heparin added as anticoagulant; pH adjusted to 7.4 with 2N HCl on day of use) in DMSO (final DMSO concentration 0.4%) to give 10 μM final concentration. Drug/plasma mixture and buffer (Dulbecco's phosphate-buffered saline 1× without calcium and magnesium, Mediatech, Inc., Herndon, VA) were placed in their respective sides, wells were capped, and the plate was placed in the rotator and allowed to dialyze for 22 h. […] Concentrations of analyte from each side of the dialysis plate were determined by LC/MS/MS on a Waters Xevo TQ instrument as described above using positive electrospray ionization. […] The fraction unbound was calculated by dividing the drug concentration in the buffer side of the dialysis plate by the drug concentration in the plasma side.
On the technique in general: In equilibrium dialysis only unbound substance equilibrates across the membrane.

Setting [4] is: human liver microsomes, in presence of NADPH, 37° C.

pIC50: −log10 of the molar value. Read-outs that look alike come from different tables or passages of the source.

As to `COc1ccc(/C=C2\N=C(C)N(c3ccc(CC(=O)NCc4ccccc4)cc3)C2=O)cc1` [KIM-161, reference compound], the pIC50 was 5.73 in the data set on HT29 (48 h), 6.78 in the data set with Kasumi-1 and 6.83 in the data set on NB4. In addition, the “Mic. Ctrl. Human % @60 min” value in data set [1] turned out to be 113%. Moreover, the “Stability HLM t1/2” value in data set [1] (setting [4]) turned out to be 22.9 min. In data set [2], the “Mouse Plasma Stability t1/2” value is listed as more than 300 min. In addition, the “Mouse PPB (% free)” value in data set [3] (10 μM, equilibrium dialysis 22 h) was 5%.
Turning to `CC1=N/C(=C\c2ccc(C)o2)C(=O)N1c1ccc(CC(=O)NCc2ccccc2)cc1` [Compound (Id), 2-Methyl-4-(5-methyl-2-furyl)methylene-1-[4-(benzylaminocarbonylmethyl)phenyl]-5-oxo-1H-imidazole], the pIC50 is 5.87 in the data set with HT29 (48 h); 5.87 with HT29 (Homo sapiens, HT-29, 48 h); 6.66 in the data set on Kasumi-1 (Homo sapiens, Kasumi 1); 6.72 with NB4 (Homo sapiens, NB-4). Besides, the “Stability HLM t1/2” value in data set [1] (setting [4]) amounted to 30.3 min. Also, the half-life in data set [1] (human, liver microsomes, human liver microsomes, in presence of NADPH, 37° C., read-out: Stability HLM t1/2) was 30 min. For the same molecule, the “Mic. Ctrl. Human % @60 min” value is 118% in data set [1] (without NADPH, percent remaining after 60 min incubation) and “did not change” in data set [1] (without NADPH, percent remaining after 60 min incubation, listed as compound (Id)). For the same molecule, the “Mouse Plasma Stability t1/2” value in data set [2] is more than 300 min. Besides, the half-life at 1 μM in data set [2] (CD-1, mouse, plasma, pH 7.4, 37° C., read-out: Mouse Plasma Stability t1/2) is more than 300 min. Also, in data set [3] (CD-1, mouse, plasma, pH 7.4, equilibrium dialysis 22 h, read-out: Mouse PPB (% free)), the fraction unbound at 22 h, 10 μM is 0.032.

Values taken from patent US20250282764A1, “IMIDAZOLE HETEROCYCLE BASED COMPOUNDS AND METHODS OF TREATING CANCER” (King Abdulaziz University, priority 2024, published 2025).
